Read-outs that look alike come from different tables or passages of the source.
Columns and labels:
bovine thrombin = target: T1, bovine thrombin (Bos taurus, UniProt P00735); assay: Inactivation rate of bovine thrombin; format: biochemical; conditions: Table VIII; pH 7.5, 25° C; [I] 1.2-54 μM; read-out: kobs/[I]
T1 construct: bovine thrombin
How it was run: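 Residual activity was followed on peptide thioester (with 4,4'-dithiodipyridine, 324 nm) or 4-nitroanilide (410 nm) substrates after enzyme (0.01-2.3 μM) was incubated with isocoumarin at 25° C in 0.1M Hepes, 0.01M CaCl2, pH 7.5 containing 8-12% Me2SO. First-order kobs came from ln(vt/vo) versus time plots.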

human thrombin = target: T2, human thrombin (Homo sapiens, UniProt P00734); assay: Inactivation rate of human thrombin; format: biochemical; conditions: Table VIII; pH 7.5, 25° C; [I] 1.2-54 μM; read-out: kobs/[I]
T2 construct: human thrombin
How it was run: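 Incubation method: enzyme (0.01-2.3 μM) mixed with inhibitor in 0.1M Hepes, 0.01M CaCl2, pH 7.5, 8% Me2SO, 25° C; residual activity sampled over time with peptide thioester or 4-nitroanilide substrates. kobs from ln(vt/vo) vs time plots.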

pig plasma [1] = assay: Activated partial thromboplastin time (APTT), pig plasma; conditions: [I] 32 μM
pig plasma [2] = assay: Prothrombin time (PT), pig plasma; conditions: [I] 32 μM
chymotrypsin = chymotrypsin (Bos taurus, UniProt P00766); assay: Inactivation of chymotrypsin; format: biochemical, bovine; conditions: Table X; pH 7.5, 25° C; [I] 0.9-43 μM; read-out: kobs/[I]
[3] = target: T3, porcine pancreatic elastase (PPE) (Sus scrofa, UniProt P00772); assay: Inactivation of porcine pancreatic elastase (PPE); format: biochemical; conditions: Table X; after 20 min incubation
T3 construct: from tissue; host or cells: porcine pancreas (from the name)
Description: Inactivation rates of serine proteases by substituted isocoumarins were measured by the incubation method. An aliquot of inhibitor (25 or 50 μl) in Me2 SO was added to a buffered enzyme solution (0.01-2.3 μM) to initiate the inactivation. Aliquots (50 μl) were withdrawn at various intervals and the residual enzymatic activity was measured. Me2 SO concentration in the reaction mixture was 8-12% (v/v). 0.1 Hepes, 0.01M CaCl2, pH 7.5 buffer was utilized for trypsin and coagulation enzymes. 0.1M Hepes, 0.5M NaCl, pH 7.5 was utilized for other serine proteases. […] Peptide thioesters or peptide nitroanilides with appropriate sequence were used as substrates for various serine proteases. All peptide thioester hydrolysis rates were measured with assay mixtures containing 4,4'-dithiodipyridine (ε324 =19800M^-1 cm^-1 ; Grasetti & Murray, Arch. Biochem. Biophys. 119, pp 41-49 (1967)). Peptide 4-nitroanilide nitroanilide hydrolysis was measured at 410 nm (ε410 =8800M^-1 cm^-1 ; Erlanger et al., Arch. Biochem. Biophys. 95, pp 271-278 (1961)). First order inactivation rate constant (kobs) were obtained from plots of ln (vt /vo) vs time, and the correlation coefficients were greater than 0.98.
^a Inactivation rates were measured at 0.1M Hepes, 0.5 NaCl, pH 7.5,
8-12% Me2 SO and 25° C. by incubation method.
^a Inhibition rates were measured in 0.1M Hepes, 0.05M NaCl, pH 7.5
buffer, 8-9% Me2 SO and at 25° C.
^a Inhibition constants were in 0.1M Hepes, 0.5M NaCl, pH 7.5 buffer,
8-9% Me2 SO and at 25° C.
^a Inhibition rates were measured in 0.1M Hepes, 0.5M NaCl, 2.5%
Me2 SO, pH 7,5 and at 25° C.
^a Inhibition was measured in 0.1M Hepes, 0.5M NaCl, pH 7.5 buffer,
5-10% Me2 SO and at 25° C. Suc--Val--Pro--Phe--NA (0.48 mM)
was used as the substrate for chymotrypsin and cat G.
^a Inhibition rates were measured in 0.1M Hepes, 0.5M NaCl, pH 7.5

human plasmin = target: T4, human plasmin (Homo sapiens, UniProt P00747); assay: Inactivation rate of human plasmin; format: biochemical; conditions: Table IX; 0.01M CaCl2, pH 7.5, 25° C; [I] 8.3-41 μM; read-out: kobs/[I]
T4 construct: human plasmin; from tissue; host or cells: human plasma

[4] = target: T5, human leukocyte elastase (HLE) (Homo sapiens, UniProt P08246); assay: Inactivation of human leukocyte elastase (HLE); format: biochemical; conditions: pH 7.5, Table X, biphasic inhibition
T5 construct: from tissue; host or cells: human leukocytes (from the name)
T5 sequence (P08246 30-267): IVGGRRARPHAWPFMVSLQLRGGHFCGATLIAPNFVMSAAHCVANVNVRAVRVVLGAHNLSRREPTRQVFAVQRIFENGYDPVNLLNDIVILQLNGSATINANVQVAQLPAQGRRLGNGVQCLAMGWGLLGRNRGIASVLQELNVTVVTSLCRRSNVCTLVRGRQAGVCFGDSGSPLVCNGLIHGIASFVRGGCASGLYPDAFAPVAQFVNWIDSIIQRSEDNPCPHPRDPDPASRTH

cathepsin G = target: T6, cathepsin G (Homo sapiens, UniProt P08311); assay: Inactivation of cathepsin G; format: biochemical; conditions: Table X; pH 7.5, 25° C; [I] 33-46 μM; read-out: kobs/[I]
T6 construct: from tissue; host or cells: human leukocytes
T6 sequence (P08311 21-255): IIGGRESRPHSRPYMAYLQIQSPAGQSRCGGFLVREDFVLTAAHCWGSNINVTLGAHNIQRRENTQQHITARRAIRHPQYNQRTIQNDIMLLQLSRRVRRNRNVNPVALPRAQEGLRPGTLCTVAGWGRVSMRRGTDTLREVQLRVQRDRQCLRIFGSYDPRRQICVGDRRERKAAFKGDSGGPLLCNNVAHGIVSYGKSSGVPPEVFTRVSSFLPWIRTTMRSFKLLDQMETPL

[5] = target: sheep lung lymph tryptase; assay: Inactivation rate of sheep lung lymph tryptase; format: biochemical; conditions: Table III; 0.1M Hepes, 0.5M NaCl, pH 7.0, 25° C
Description: Inactivation rates of serine proteases by substituted isocoumarins were measured by the incubation method. An aliquot of inhibitor (25 or 50 μl) in Me2 SO was added to a buffered enzyme solution (0.01-2.3 μM) to initiate the inactivation. Aliquots (50 μl) were withdrawn at various intervals and the residual enzymatic activity was measured. […] 0.1 Hepes, 0.01M CaCl2, pH 7.5 buffer was utilized for trypsin and coagulation enzymes. […] The inhibitor concentrations are shown in all the tables. Peptide thioesters or peptide nitroanilides with appropriate sequence were used as substrates for various serine proteases.
^a Inactivation rates were measured at 0.1M Hepes, 0.5M NaCl, pH 7.5
buffer, 8% Me2 SO and 25° C.

complement protein B = complement protein B (Homo sapiens, UniProt P00751); assay: Inactivation rate of complement protein B; format: biochemical
Description: (§1) Inactivation rates of serine proteases by substituted isocoumarins were measured by the incubation method. An aliquot of inhibitor (25 or 50 μl) in Me2 SO was added to a buffered enzyme solution (0.01-2.3 μM) to initiate the inactivation. Aliquots (50 μl) were withdrawn at various intervals and the residual enzymatic activity was measured. Me2 SO concentration in the reaction mixture was 8-12% (v/v). 0.1 Hepes, 0.01M CaCl2, pH 7.5 buffer was utilized for trypsin and coagulation enzymes. 0.1M Hepes, 0.5M NaCl, pH 7.5 was utilized for other serine proteases. The inhibitor concentrations are shown in all the tables. Peptide thioesters or peptide nitroanilides with appropriate sequence were used as substrates for various serine proteases. All peptide thioester hydrolysis rates were measured with assay mixtures containing 4,4'-dithiodipyridine (ε324 =19800M^-1 cm^-1; Grasetti & Murray, Arch. Biochem. Biophys. 119, pp 41-49 (1967)). Peptide 4-nitroanilide nitroanilide hydrolysis was measured at 410 nm (ε410 =8800M^-1 cm^-1; Erlanger et al., Arch. Biochem. Biophys. 95, pp 271-278 (1961)). First order inactivation rate constant (kobs) were obtained from plots of ln (vt /vo) vs time, and the correlation coefficients were greater than 0.98.
(§2) ^a Conditions were 0.1M Hepes, 0.5M NaCl, pH 7.5, 8-10% Me2 SO
(§3) and 25° C. Inactivation rates were measured by incubation method.
(§4) Enzyme concentrations were as follows: protein D, 1-9 μM; C2, 0.7-1
(§5) μM; B, 1.8 μM; Bb, 0.3-0.8 μM; Cl^- s, 0.07 μM; Cl^-

complement protein D = complement protein D (Homo sapiens, UniProt P00746); assay: Inactivation rate of complement protein D; format: biochemical; conditions: Table II; pH 7.5, 25° C; [I] 0.05 to 1.29 mM
Description: as §1, §2, §3, §4, §5

complement protein C2 = target: T7, complement protein C2 (Homo sapiens, UniProt P06681); assay: Inactivation rate of complement protein C2; format: biochemical
T7 sequence (P06681 21-752): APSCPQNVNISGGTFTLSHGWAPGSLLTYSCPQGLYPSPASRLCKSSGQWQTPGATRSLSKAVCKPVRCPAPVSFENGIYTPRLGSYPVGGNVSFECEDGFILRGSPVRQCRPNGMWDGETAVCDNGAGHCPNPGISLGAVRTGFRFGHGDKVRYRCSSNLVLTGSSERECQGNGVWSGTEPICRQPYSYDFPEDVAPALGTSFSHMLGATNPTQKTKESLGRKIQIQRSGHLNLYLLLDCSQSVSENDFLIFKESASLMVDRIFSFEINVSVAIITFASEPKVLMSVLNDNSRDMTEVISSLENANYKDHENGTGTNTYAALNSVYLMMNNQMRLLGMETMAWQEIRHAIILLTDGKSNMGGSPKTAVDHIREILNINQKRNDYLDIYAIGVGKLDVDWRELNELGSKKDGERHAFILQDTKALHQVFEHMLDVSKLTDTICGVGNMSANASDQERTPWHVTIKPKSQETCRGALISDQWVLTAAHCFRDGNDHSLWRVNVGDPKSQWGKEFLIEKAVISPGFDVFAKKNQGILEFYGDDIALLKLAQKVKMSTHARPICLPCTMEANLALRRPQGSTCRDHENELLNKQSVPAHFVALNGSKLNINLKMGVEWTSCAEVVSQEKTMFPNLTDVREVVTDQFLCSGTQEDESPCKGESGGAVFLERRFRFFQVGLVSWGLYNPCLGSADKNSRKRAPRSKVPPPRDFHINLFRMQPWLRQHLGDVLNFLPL
Description: as §1, §2, §3, §4, §5

T4 sequence (P00747 581-810 limits assumed): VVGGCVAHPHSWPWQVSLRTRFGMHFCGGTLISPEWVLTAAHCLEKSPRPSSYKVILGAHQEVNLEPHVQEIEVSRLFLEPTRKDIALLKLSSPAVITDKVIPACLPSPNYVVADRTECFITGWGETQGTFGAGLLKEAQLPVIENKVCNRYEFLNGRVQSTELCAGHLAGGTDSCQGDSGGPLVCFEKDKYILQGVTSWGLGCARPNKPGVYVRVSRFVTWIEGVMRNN
T4 sequence (P00747 97-580 partner limits assumed): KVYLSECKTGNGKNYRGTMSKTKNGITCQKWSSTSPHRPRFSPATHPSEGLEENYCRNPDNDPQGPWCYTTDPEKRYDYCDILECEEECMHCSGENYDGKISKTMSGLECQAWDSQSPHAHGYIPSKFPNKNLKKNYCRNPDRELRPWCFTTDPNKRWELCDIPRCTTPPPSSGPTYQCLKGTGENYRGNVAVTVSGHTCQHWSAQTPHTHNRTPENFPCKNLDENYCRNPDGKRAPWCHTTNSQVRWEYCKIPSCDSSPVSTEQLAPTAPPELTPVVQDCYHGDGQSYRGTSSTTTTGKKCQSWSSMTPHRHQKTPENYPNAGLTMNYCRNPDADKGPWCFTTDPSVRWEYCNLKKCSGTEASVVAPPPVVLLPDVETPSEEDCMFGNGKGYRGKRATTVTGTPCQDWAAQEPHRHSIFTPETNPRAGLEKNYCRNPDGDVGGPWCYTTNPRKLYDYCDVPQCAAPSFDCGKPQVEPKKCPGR
Chain of complement protein D (P00746 26-253): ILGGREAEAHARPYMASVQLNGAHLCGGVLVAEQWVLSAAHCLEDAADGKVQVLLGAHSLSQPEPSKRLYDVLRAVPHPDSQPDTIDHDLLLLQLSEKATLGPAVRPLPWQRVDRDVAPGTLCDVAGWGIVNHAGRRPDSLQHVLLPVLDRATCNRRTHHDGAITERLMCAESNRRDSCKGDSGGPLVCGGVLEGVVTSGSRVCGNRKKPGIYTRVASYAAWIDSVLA
Chain of complement protein B (P00751 26-764): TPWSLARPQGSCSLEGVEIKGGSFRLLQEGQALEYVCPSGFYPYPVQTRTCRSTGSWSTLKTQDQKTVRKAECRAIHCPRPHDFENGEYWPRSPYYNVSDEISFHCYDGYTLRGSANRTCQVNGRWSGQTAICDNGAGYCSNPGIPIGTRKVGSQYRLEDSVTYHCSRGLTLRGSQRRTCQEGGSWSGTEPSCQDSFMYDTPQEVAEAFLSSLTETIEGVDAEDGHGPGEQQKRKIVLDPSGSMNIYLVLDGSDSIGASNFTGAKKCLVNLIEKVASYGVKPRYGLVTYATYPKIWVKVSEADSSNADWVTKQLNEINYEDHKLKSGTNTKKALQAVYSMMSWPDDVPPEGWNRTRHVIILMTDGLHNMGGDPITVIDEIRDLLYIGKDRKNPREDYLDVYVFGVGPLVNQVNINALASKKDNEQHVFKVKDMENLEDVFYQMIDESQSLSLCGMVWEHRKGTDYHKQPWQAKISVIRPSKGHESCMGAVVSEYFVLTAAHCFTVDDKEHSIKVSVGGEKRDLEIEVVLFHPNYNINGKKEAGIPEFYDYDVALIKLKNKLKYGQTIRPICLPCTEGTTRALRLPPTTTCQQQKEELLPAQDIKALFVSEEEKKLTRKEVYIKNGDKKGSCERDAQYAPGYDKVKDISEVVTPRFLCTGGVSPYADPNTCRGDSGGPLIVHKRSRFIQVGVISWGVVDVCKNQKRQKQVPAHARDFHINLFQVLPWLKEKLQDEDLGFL
T3 sequence (P00772 27-266): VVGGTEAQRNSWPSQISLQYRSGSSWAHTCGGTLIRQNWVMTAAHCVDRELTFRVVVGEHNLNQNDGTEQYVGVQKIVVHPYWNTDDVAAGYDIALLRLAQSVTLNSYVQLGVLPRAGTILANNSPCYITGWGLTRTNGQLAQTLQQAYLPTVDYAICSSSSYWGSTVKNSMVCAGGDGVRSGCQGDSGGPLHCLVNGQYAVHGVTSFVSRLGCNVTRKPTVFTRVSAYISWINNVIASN

kinact/KI (bovine thrombin)	kinact/KI (human thrombin)	kinact/KI (chymotrypsin)	percentage of inhibition [3]	kinact/KI (human plasmin)	kinact/KI ([4]; read-out: kobs/[I] (biphasic, first value))	kinact/KI ([4]; read-out: kobs/[I] (biphasic, second value))	kinact/KI (cathepsin G)	Structure (SMILES)	APTT (pig plasma [1])	PT (pig plasma [2])	kobs/[I] [5]	inhibition of protein B (in words) (complement protein B)	kobs/[I] (complement protein D)	inhibition of C2 (in words) (complement protein C2)
41300 M⁻¹ s⁻¹	21000 M⁻¹ s⁻¹	260 M⁻¹ s⁻¹	21%	27800 M⁻¹ s⁻¹	5100 M⁻¹ s⁻¹	360 M⁻¹ s⁻¹	35 M⁻¹ s⁻¹	C[C@H](NC(=O)Nc1ccc2c(Cl)c(OCCSC(=N)N)oc(=O)c2c1)c1ccccc1 [S-C6 H5 (CH3)CHNHCONH-CiTEtOIC, 7-((S)-α-methylbenzylcarbamoylamino)-4-chloro-3-(2-isothiureidoethoxy)isocoumarin]	> 120 s	30.0 s	–	–	–	–
–	–	–	–	–	–	–	–	N=C(N)c1ccc(CS(=O)(=O)F)cc1 [APMSF, 4-amidinophenylmethane sulfonyl fluoride, reference compound]	–	–	230 M⁻¹ s⁻¹	do not show any inhibition	110 M⁻¹ s⁻¹	do not show any inhibition
